Reference: US10485741B2 (WONKWANG UNIVERSITY CENTER FOR INDUSTRY-ACADEMY COOPERATION, priority 2016, dated 2019)
Values after ≈ are worked out from the molar mass of the structure shown. Where two headings read alike, the source gives them in different places.

Key:
Type in all cases: cell-based, Streptococcus mutans
S. mutans [1] = test: Agar diffusion test of fluoride varnish of hydrogenated rosin mixed with antibacterial substance, inhibition zone; settings: for Inhibition zone, Fluoride varnish + 1 mM substance / Inhibition zone, Fluoride varnish + 10 mM substance: substance mixed 1:1 with fluoride varnish, positive control = ampicillin alone; for antibacterial activities of fluoride varnish mixed with substance compared with a fluoride varnish alone (in words): 1 mM or 10 mM antibacterial substance
Experimental: Antibacterial substance powders were dissolved in DMSO to 100 mM and stored. It was diluted with DMSO to prepare 20 mM and 2 mM antibacterial substances.
Specifically, S. mutans was primarily cultured in a BHI medium in a CO2 incubator at 37°C. for 24 hours. Then, 200 μL of a suspension of S. mutans was inoculated into BHI and secondarily cultured for 6 hours. Then, the OD value was measured with Eppendorf Biophotometer plus. After the measurement, the bacteria were mixed with top agar and then inoculated into the agar medium containing base agar. After top agar hardened, a 6 mm diameter paper disc was placed on the agar medium.
(§1) 5 μL of each of 0.1 mM, 1 mM and 10 mM antibacterial substances was dropped on the paper disc. 10 μL/ml of ampicilin was used as the positive control, and PBS was used as the negative control. After culturing in a CO2 incubator at 37°C for 24 hours, the diameter of the S. mutans inhibition zone formed around the paper disc was measured in two perpendicular locations and the average was calculated to evaluate the antibacterial activities. The average was expressed in mm.
Fluoride varnishes mixed with an antibacterial substance which comprise an antibacterial substance tested in Test Example 1 were prepared according to the method described in Example 2 and the antibacterial activities thereof were tested.

S. mutans [2] = test: Minimum inhibitory concentration (MIC) and minimal bactericidal concentration (MBC), 96-well BHI broth dilution; settings: for MIC: BHI broth, 24-hour culture, absorbance at 600 nm
Experimental: The minimum inhibitory concentration and minimal bactericidal concentration of antibacterial substances were identified using S. mutans, which is related to dental caries, as the strain. Specifically, in order to measure MIC, a 96-well plate containing 100 μL of BHI broth per well was used. Antibacterial substances were used at a concentration of 16 mM, and the substance No. 1-2 of Example 1 was used at a concentration of 1 mM. The antibacterial materials were transferred to the first well and diluted stepwise. The substance No. 1-2 was diluted to 1 mM to 0.004375 mM and the other antibacterial substances were diluted to 16 mM to 0.007 mM. S. mutans was activated using BHI broth as the medium and cultured in a CO2 incubator at 37° C. for 24 hours. Then, the bacteria were cultured for another 6 hours, and then 100 μL thereof was added to each well of the 96-well plate. After 24-hour culture, the minimum inhibitory concentration was determined by measuring the absorbance at 600 nm with Enzyme-linked immuno-assay reader (Spectra MAX250, Molecular Devices Co.).

S. mutans [3] = test: Formation of Semi-inhibition zone by fluoride varnish mixed with antibacterial substance (agar diffusion); settings: for Semi-inhibition zone, Fluoride varnish + 1 mM substance / Semi-inhibition zone, Fluoride varnish + 10 mM substance: Table 4, substance mixed 1:1 with fluoride varnish, positive control = ampicillin alone
Source text: In addition, the formation of Semi-inhibition zone was investigated according to the same method as in Test Example 1.

S. mutans (ATCC 25175) = test: Agar diffusion test (paper disc), antibacterial substance alone; settings: for diameter of the S. mutans inhibition zone, 0.1 mM antibacterial substance alone: 5 μL of 0.1 mM substance on 6 mm paper disc; for diameter of the S. mutans inhibition zone, 0.1 mM antibacterial substance alone / diameter of the S. mutans inhibition zone, 1 mM antibacterial substance alone / diameter of the S. mutans inhibition zone, 10 mM antibacterial substance alone: 24 h, positive control 10 μL/ml ampicillin; for diameter of the S. mutans inhibition zone, 1 mM antibacterial substance alone: 5 μL of 1 mM substance on 6 mm paper disc; for diameter of the S. mutans inhibition zone, 10 mM antibacterial substance alone: 5 μL of 10 mM substance on 6 mm paper disc; for antibacterial activities against S. mutans (in words): screening from a total 100 substances; for activities against S. mutans (in words): 0.1 mM antibacterial substance
Experimental: as §1, with “Specifically, S. mutans was primarily cultured in a BHI medium in a CO2 incubator at 37°C. for 24 hours. Then, 200 μL of a suspension of S. mutans was inoculated into BHI and secondarily cultured for 6 hours. Then, the OD value was measured with Eppendorf Biophotometer plus. After the measurement, the bacteria were mixed with top agar and then inoculated into the agar medium containing base agar. After top agar hardened, a 6 mm diameter paper disc was placed on the agar medium. 5” for “5”

[4] = listed as xanthorrhizol (Santa Cruz)
[5] = listed as xanthorrhizol (BioAlpha)
[6] = Streptococcus mutans, 24 h, read-out: MIC
[7] = Streptococcus mutans, read-out: MBC

Structure (SMILES): CC(C)=CCC[C@@H](C)c1ccc(C)c(O)c1 [No. 1-1, xanthorrhizol]
- Inhibition zone, Fluoride varnish + 1 mM substance (S. mutans [1]; primary test (Table 2)): 9.14 mm
- Inhibition zone, Fluoride varnish + 10 mM substance (S. mutans [1]; primary test (Table 2)): 10.62 mm
- Inhibition zone, Fluoride varnish + 1 mM substance (S. mutans [1]; secondary test (Table 3)): 8.64 mm
- Inhibition zone, Fluoride varnish + 10 mM substance (S. mutans [1]; secondary test (Table 3)): 10.28 mm
- MIC (S. mutans [2]; [4]): 62 µM (≈ 13.5 µg/mL)
- MBC (S. mutans [2]; [4]): 125 µM (≈ 27.3 µg/mL)
- Semi-inhibition zone, Fluoride varnish + 1 mM substance (S. mutans [3]): 25.515 mm
- Semi-inhibition zone, Fluoride varnish + 10 mM substance (S. mutans [3]): 25.725 mm
- diameter of the S. mutans inhibition zone, 0.1 mM antibacterial substance alone (S. mutans (ATCC 25175)): 6 mm
- diameter of the S. mutans inhibition zone, 1 mM antibacterial substance alone (S. mutans (ATCC 25175)): 6 mm
- diameter of the S. mutans inhibition zone, 10 mM antibacterial substance alone (S. mutans (ATCC 25175)): 7.75 mm

Structure (SMILES): CC(C)=CCC[C@@H](C)c1ccc(C)c(O)c1 [No. 1-2, xanthorrhizol]
- Inhibition zone, Fluoride varnish + 1 mM substance (S. mutans [1]; primary test (Table 2)): 8.58 mm
- Inhibition zone, Fluoride varnish + 1 mM substance (S. mutans [1]; secondary test (Table 3)): 9.65 mm
- MIC, rank (in words) (S. mutans [2]): lowest MIC
- MIC (S. mutans [2]; [5]): 15 µM (≈ 3.28 µg/mL)
- MBC (S. mutans [2]; [5]): 62 µM (≈ 13.5 µg/mL)
- Semi-inhibition zone, Fluoride varnish + 1 mM substance (S. mutans [3]): 12.265 mm
- diameter of the S. mutans inhibition zone, 0.1 mM antibacterial substance alone (S. mutans (ATCC 25175)): 8.26 mm
- diameter of the S. mutans inhibition zone, 1 mM antibacterial substance alone (S. mutans (ATCC 25175)): 10.3 mm

Structure (SMILES): C=C[C@@](C)(/C=C/c1ccc(O)cc1)CCC=C(C)C [No. 2, Bakuchiol]
- Inhibition zone, Fluoride varnish + 1 mM substance (S. mutans [1]; primary test (Table 2)): 9.55 mm
- Inhibition zone, Fluoride varnish + 10 mM substance (S. mutans [1]; primary test (Table 2)): 9.82 mm
- antibacterial activities of fluoride varnish mixed with substance compared with a fluoride varnish alone (in words) (S. mutans [1]; primary test): significant antibacterial activities
- Inhibition zone, Fluoride varnish + 1 mM substance (S. mutans [1]; secondary test (Table 3)): 8.53 mm
- Inhibition zone, Fluoride varnish + 10 mM substance (S. mutans [1]; secondary test (Table 3)): 10.10 mm
- MBC, rank (in words) (S. mutans [2]): lowest MBC
- MIC, rank (in words) (S. mutans [2]): lowest MIC
- MIC (S. mutans [2]; [6]): 15 µM (≈ 3.85 µg/mL)
- MBC (S. mutans [2]; [7]): 31 µM (≈ 7.95 µg/mL)
- Semi-inhibition zone, Fluoride varnish + 1 mM substance (S. mutans [3]): 22.87 mm
- Semi-inhibition zone, Fluoride varnish + 10 mM substance (S. mutans [3]): 26.705 mm
- diameter of the S. mutans inhibition zone, 0.1 mM antibacterial substance alone (S. mutans (ATCC 25175)): 6 mm
- diameter of the S. mutans inhibition zone, 1 mM antibacterial substance alone (S. mutans (ATCC 25175)): 8.9 mm
- diameter of the S. mutans inhibition zone, 10 mM antibacterial substance alone (S. mutans (ATCC 25175)): 14.5 mm
- antibacterial activities against S. mutans (in words) (S. mutans (ATCC 25175)): significant antibacterial activities

Structure (SMILES): CC(C)=CCc1cc(C(=O)/C=C/c2ccc(O)cc2)c(O)cc1O [No. 3, Bavachalcone]
- Inhibition zone, Fluoride varnish + 1 mM substance (S. mutans [1]; primary test (Table 2)): 11.31 mm
- Inhibition zone, Fluoride varnish + 10 mM substance (S. mutans [1]; primary test (Table 2)): 15.35 mm
- antibacterial activities of fluoride varnish mixed with substance compared with a fluoride varnish alone (in words) (S. mutans [1]; primary test): significant antibacterial activities
- increase of antibacterial activities of fluoride varnish mixed with substance (S. mutans [1]; primary test, compared with a fluoride varnish alone): ≥ 70%
- antibacterial activities of fluoride varnish mixed with substance (in words) (S. mutans [1]; secondary test): remarkable antibacterial activities
- Inhibition zone, Fluoride varnish + 1 mM substance (S. mutans [1]; secondary test (Table 3)): 12.79 mm
- Inhibition zone, Fluoride varnish + 10 mM substance (S. mutans [1]; secondary test (Table 3)): 13.17 mm
- MIC, rank (in words) (S. mutans [2]): lowest MIC
- MIC (S. mutans [2]; [6]): 15 µM (≈ 4.87 µg/mL)
- MBC (S. mutans [2]; [7]): 62 µM (≈ 20.1 µg/mL)
- formation of Semi-inhibition zone (in words) (S. mutans [3]): largest Semi-inhibition zone
- Semi-inhibition zone, Fluoride varnish + 1 mM substance (S. mutans [3]): 34.025 mm
- Semi-inhibition zone, Fluoride varnish + 10 mM substance (S. mutans [3]): 20.74 mm
- activities against S. mutans (in words) (S. mutans (ATCC 25175)): significant activities
- activities against S. mutans, rank (in words) (S. mutans (ATCC 25175); 1 mM antibacterial substance): highest activities
- activities against S. mutans, rank (in words) (S. mutans (ATCC 25175); 10 mM antibacterial substance): highest activities
- diameter of the S. mutans inhibition zone, 0.1 mM antibacterial substance alone (S. mutans (ATCC 25175)): 9.63 mm
- diameter of the S. mutans inhibition zone, 1 mM antibacterial substance alone (S. mutans (ATCC 25175)): 14.51 mm
- diameter of the S. mutans inhibition zone, 10 mM antibacterial substance alone (S. mutans (ATCC 25175)): 18.87 mm
- antibacterial activities against S. mutans (in words) (S. mutans (ATCC 25175)): significant antibacterial activities

Structure (SMILES): CC1(C)C=Cc2c(ccc(C(=O)/C=C/c3ccc(O)cc3)c2O)O1 [No. 4, Isobavachromene]
- Inhibition zone, Fluoride varnish + 1 mM substance (S. mutans [1]; primary test (Table 2)): 9.94 mm
- Inhibition zone, Fluoride varnish + 10 mM substance (S. mutans [1]; primary test (Table 2)): 10.93 mm
- antibacterial activities of fluoride varnish mixed with substance compared with a fluoride varnish alone (in words) (S. mutans [1]; primary test): significant antibacterial activities
- Inhibition zone, Fluoride varnish + 1 mM substance (S. mutans [1]; secondary test (Table 3)): 9.17 mm
- Inhibition zone, Fluoride varnish + 10 mM substance (S. mutans [1]; secondary test (Table 3)): 9.96 mm
- MIC, rank (in words) (S. mutans [2]): lowest MIC
- MIC (S. mutans [2]; [6]): 15 µM (≈ 4.84 µg/mL)
- MBC (S. mutans [2]; [7]): 125 µM (≈ 40.3 µg/mL)
- Semi-inhibition zone, Fluoride varnish + 1 mM substance (S. mutans [3]): 20.795 mm
- Semi-inhibition zone, Fluoride varnish + 10 mM substance (S. mutans [3]): 24.81 mm
- diameter of the S. mutans inhibition zone, 0.1 mM antibacterial substance alone (S. mutans (ATCC 25175)): 6 mm
- diameter of the S. mutans inhibition zone, 1 mM antibacterial substance alone (S. mutans (ATCC 25175)): 8.71 mm
- diameter of the S. mutans inhibition zone, 10 mM antibacterial substance alone (S. mutans (ATCC 25175)): 9.91 mm
- antibacterial activities against S. mutans (in words) (S. mutans (ATCC 25175)): significant antibacterial activities

Structure (SMILES): CC1(C)S[C@@H]2[C@H](NC(=O)[C@H](N)c3ccccc3)C(=O)N2[C@H]1C(=O)O [Positive control group, ampicillin, reference compound]
- Inhibition zone, Fluoride varnish + 1 mM substance (S. mutans [1]; primary test (Table 2)): 18.05 mm
- Inhibition zone, Fluoride varnish + 10 mM substance (S. mutans [1]; primary test (Table 2)): 18.72 mm
- Inhibition zone, Fluoride varnish + 1 mM substance (S. mutans [1]; secondary test (Table 3)): 13.55 mm
- Inhibition zone, Fluoride varnish + 10 mM substance (S. mutans [1]; secondary test (Table 3)): 14.84 mm
- formation of Semi-inhibition zone (in words) (S. mutans [3]): did not form a Semi-inhibition zone
- Semi-inhibition zone, Fluoride varnish + 1 mM substance (S. mutans [3]): 13.55 mm
- Semi-inhibition zone, Fluoride varnish + 10 mM substance (S. mutans [3]): 14.84 mm
- diameter of the S. mutans inhibition zone, 0.1 mM antibacterial substance alone (S. mutans (ATCC 25175)): 17.24 mm
- diameter of the S. mutans inhibition zone, 1 mM antibacterial substance alone (S. mutans (ATCC 25175)): 22.2 mm
- diameter of the S. mutans inhibition zone, 10 mM antibacterial substance alone (S. mutans (ATCC 25175)): 22.4 mm

Structure (SMILES): CC(C)=CCC[C@@H](C)c1ccc(C)c(O)c1 [xanthorrhizol]
- antibacterial activities of fluoride varnish mixed with substance compared with a fluoride varnish alone (in words) (S. mutans [1]; primary test): significant antibacterial activities
- activities against S. mutans (in words) (S. mutans (ATCC 25175)): significant activities
- antibacterial activities against S. mutans (in words) (S. mutans (ATCC 25175)): significant antibacterial activities
